# Results taken from PubChem BioAssay (NCI).
#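 96-well plates; 48 h exposure; 5 concentrations. Endpoints by linear interpolation between flanking doses. Not reached: highest tested concentration assigned. TGI marks complete inhibition of growth.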
# Key:
# Assay in all cases: NCI anticancer screen, dose series, 48 h
# LOX IMVI melanoma = tested on: LOX IMVI melanoma
# HCT-116 colon = tested on: HCT-116 colon
# UACC-62 melanoma = tested on: UACC-62 melanoma
# SR leukemia = tested on: SR leukemia
# EKVX NSCLC = tested on: EKVX NSCLC
# HOP-92 NSCLC = tested on: HOP-92 NSCLC
# HT29 colon = tested on: HT29 colon
# U251 CNS = tested on: U251 CNS
# HCT-15 colon = tested on: HCT-15 colon
# SF-539 CNS = tested on: SF-539 CNS
# NCI-H460 lung = tested on: NCI-H460 lung
# MDA-MB-435 = tested on: MDA-MB-435
# MDA-N = tested on: MDA-N
# UACC-257 melanoma = tested on: UACC-257 melanoma
# HOP-62 NSCLC = tested on: HOP-62 NSCLC
# SK-MEL-2 melanoma = tested on: SK-MEL-2 melanoma
# UO-31 renal = tested on: UO-31 renal
# NCI-H23 lung = tested on: NCI-H23 lung
# T-47D breast = tested on: T-47D breast
# HL-60(TB) leukemia = tested on: HL-60(TB) leukemia
# RPMI-8226 leukemia = tested on: RPMI-8226 leukemia
# HCC-2998 colon = tested on: HCC-2998 colon
# SNB-75 CNS = tested on: SNB-75 CNS
# SNB-19 CNS = tested on: SNB-19 CNS
# RXF 393 renal = tested on: RXF 393 renal
# 786-0 renal = tested on: 786-0 renal
# PC-3 prostate = tested on: PC-3 prostate
# SK-OV-3 ovarian = tested on: SK-OV-3 ovarian
# A498 renal = tested on: A498 renal
# SK-MEL-5 melanoma = tested on: SK-MEL-5 melanoma
# IGROV1 ovarian = tested on: IGROV1 ovarian
# COLO 205 colon = tested on: COLO 205 colon
# OVCAR-4 ovarian = tested on: OVCAR-4 ovarian
# OVCAR-5 ovarian = tested on: OVCAR-5 ovarian
# NCI-H522 lung = tested on: NCI-H522 lung
# M14 melanoma = tested on: M14 melanoma
# TK-10 renal = tested on: TK-10 renal
# OVCAR-8 ovarian = tested on: OVCAR-8 ovarian
# A549 NSCLC = tested on: A549 NSCLC
# BT-549 breast = tested on: BT-549 breast
# OVCAR-3 ovarian = tested on: OVCAR-3 ovarian
# SF-295 CNS = tested on: SF-295 CNS
# MDA-MB-231 breast = tested on: MDA-MB-231 breast
# SF-268 CNS = tested on: SF-268 CNS
# NCI-H226 lung = tested on: NCI-H226 lung
# CAKI-1 renal = tested on: CAKI-1 renal
# NCI/ADR-RES ovarian = tested on: NCI/ADR-RES ovarian
# K-562 leukemia = tested on: K-562 leukemia
# SW-620 colon = tested on: SW-620 colon
# MALME-3M melanoma = tested on: MALME-3M melanoma
# KM12 colon = tested on: KM12 colon
# SK-MEL-28 melanoma = tested on: SK-MEL-28 melanoma
# HS 578T breast = tested on: HS 578T breast
# CCRF-CEM leukemia = tested on: CCRF-CEM leukemia
# MOLT-4 leukemia = tested on: MOLT-4 leukemia
# DU-145 prostate = tested on: DU-145 prostate
# SN12C renal = tested on: SN12C renal
# ACHN renal = tested on: ACHN renal
# MCF7 breast = tested on: MCF7 breast
compound,measurement,setting,value
CCOc1cccc(C=Nc2ccccc2SSc2ccccc2N=Cc2cccc(OCC)c2O)c1O,TGI,LOX IMVI melanoma,14.9 µM
same,TGI,HCT-116 colon,11.2 µM
same,TGI,UACC-62 melanoma,22 µM
same,TGI,SR leukemia,28.2 µM
same,TGI,EKVX NSCLC,19 µM
same,TGI,HOP-92 NSCLC,33.3 µM
same,TGI,HT29 colon,28.9 µM
same,TGI,U251 CNS,13.2 µM
same,TGI,HCT-15 colon,12.9 µM
same,TGI,SF-539 CNS,80.2 µM
same,TGI,NCI-H460 lung,20.1 µM
same,TGI,MDA-MB-435,23.7 µM
same,TGI,MDA-N,37.7 µM
same,TGI,UACC-257 melanoma,21.2 µM
same,TGI,HOP-62 NSCLC,30.9 µM
same,TGI,SK-MEL-2 melanoma,37.7 µM
same,TGI,UO-31 renal,26.6 µM
same,TGI,NCI-H23 lung,20.3 µM
same,TGI,T-47D breast,10.7 µM
same,TGI,HL-60(TB) leukemia,14.8 µM
same,TGI,RPMI-8226 leukemia,35.9 µM
same,TGI,HCC-2998 colon,44.1 µM
same,TGI,SNB-75 CNS,56 µM
same,TGI,SNB-19 CNS,47.4 µM
same,TGI,RXF 393 renal,34.9 µM
same,TGI,786-0 renal,19.8 µM
same,TGI,PC-3 prostate,12.8 µM
same,TGI,SK-OV-3 ovarian,52 µM
same,TGI,A498 renal,44 µM
same,TGI,SK-MEL-5 melanoma,7.58 µM
same,TGI,IGROV1 ovarian,15.9 µM
same,TGI,COLO 205 colon,12.4 µM
same,TGI,OVCAR-4 ovarian,14.3 µM
same,TGI,OVCAR-5 ovarian,14.6 µM
same,TGI,NCI-H522 lung,10.4 µM
same,TGI,M14 melanoma,19.4 µM
same,TGI,TK-10 renal,51.4 µM
same,TGI,OVCAR-8 ovarian,8.33 µM
same,TGI,A549 NSCLC,26.6 µM
same,TGI,BT-549 breast,8.19 µM
same,TGI,OVCAR-3 ovarian,8.16 µM
same,TGI,SF-295 CNS,37.6 µM
same,TGI,MDA-MB-231 breast,35 µM
same,TGI,SF-268 CNS,21.5 µM
same,TGI,NCI-H226 lung,22.5 µM
same,TGI,CAKI-1 renal,29.3 µM
same,TGI,NCI/ADR-RES ovarian,> 100 µM
same,TGI,K-562 leukemia,27.6 µM
same,TGI,SW-620 colon,23.1 µM
same,TGI,MALME-3M melanoma,23.6 µM
same,TGI,KM12 colon,19.6 µM
same,TGI,SK-MEL-28 melanoma,26.2 µM
same,TGI,HS 578T breast,90.7 µM
same,TGI,CCRF-CEM leukemia,12.2 µM
same,TGI,MOLT-4 leukemia,10.4 µM
same,TGI,DU-145 prostate,30.9 µM
same,TGI,SN12C renal,35.7 µM
same,TGI,ACHN renal,29.3 µM
N=c1c2ccccc2nc2oc3cc([N+](=O)[O-])ccc3n12,TGI,LOX IMVI melanoma,> 100 µM
same,TGI,HCT-116 colon,> 100 µM
same,TGI,UACC-62 melanoma,> 100 µM
same,TGI,SR leukemia,> 100 µM
same,TGI,EKVX NSCLC,89 µM
same,TGI,HT29 colon,> 100 µM
same,TGI,U251 CNS,29.6 µM
same,TGI,HCT-15 colon,> 100 µM
same,TGI,SF-539 CNS,65.4 µM
same,TGI,NCI-H460 lung,> 100 µM
same,TGI,MDA-MB-435,> 100 µM
same,TGI,MDA-N,> 100 µM
same,TGI,MCF7 breast,> 100 µM
same,TGI,UACC-257 melanoma,> 100 µM
same,TGI,HOP-62 NSCLC,45.4 µM
same,TGI,SK-MEL-2 melanoma,> 100 µM
same,TGI,UO-31 renal,32.3 µM
same,TGI,NCI-H23 lung,49.5 µM
same,TGI,T-47D breast,20.3 µM
same,TGI,RPMI-8226 leukemia,> 100 µM
same,TGI,HCC-2998 colon,> 100 µM
same,TGI,SNB-75 CNS,24.9 µM
same,TGI,SNB-19 CNS,> 100 µM
same,TGI,RXF 393 renal,32.5 µM
same,TGI,786-0 renal,66.3 µM
same,TGI,PC-3 prostate,> 100 µM
same,TGI,SK-OV-3 ovarian,37.1 µM
same,TGI,SK-MEL-5 melanoma,> 100 µM
same,TGI,IGROV1 ovarian,> 100 µM
same,TGI,COLO 205 colon,> 100 µM
same,TGI,OVCAR-4 ovarian,> 100 µM
same,TGI,OVCAR-5 ovarian,> 100 µM
same,TGI,NCI-H522 lung,> 100 µM
same,TGI,M14 melanoma,> 100 µM
same,TGI,TK-10 renal,36.6 µM
same,TGI,OVCAR-8 ovarian,51.2 µM
same,TGI,A549 NSCLC,> 100 µM
same,TGI,BT-549 breast,91.6 µM
same,TGI,OVCAR-3 ovarian,70.8 µM
same,TGI,SF-295 CNS,54.4 µM
same,TGI,MDA-MB-231 breast,60.5 µM
same,TGI,SF-268 CNS,85.2 µM
same,TGI,NCI-H226 lung,30.3 µM
same,TGI,CAKI-1 renal,> 100 µM
same,TGI,NCI/ADR-RES ovarian,74 µM
same,TGI,K-562 leukemia,> 100 µM
same,TGI,SW-620 colon,> 100 µM
same,TGI,MALME-3M melanoma,> 100 µM
same,TGI,KM12 colon,> 100 µM
same,TGI,SK-MEL-28 melanoma,> 100 µM
same,TGI,HS 578T breast,50.7 µM
same,TGI,CCRF-CEM leukemia,> 100 µM
same,TGI,MOLT-4 leukemia,> 100 µM
same,TGI,SN12C renal,> 100 µM
same,TGI,ACHN renal,57.7 µM
CC1=CC[C@H](C[C@H](C#CCCCC2OCCO2)O[Si](C(C)C)(C(C)C)C(C)C)C(=O)CC1,TGI,LOX IMVI melanoma,> 100 µM
same,TGI,HCT-116 colon,> 100 µM
same,TGI,UACC-62 melanoma,> 100 µM
same,TGI,SR leukemia,> 100 µM
same,TGI,EKVX NSCLC,> 100 µM
same,TGI,HOP-92 NSCLC,> 100 µM
same,TGI,HT29 colon,> 100 µM
same,TGI,U251 CNS,> 100 µM
same,TGI,HCT-15 colon,> 100 µM
same,TGI,NCI-H460 lung,> 100 µM
same,TGI,MDA-MB-435,> 100 µM
same,TGI,MDA-N,> 100 µM
same,TGI,MCF7 breast,> 100 µM
same,TGI,UACC-257 melanoma,> 100 µM
same,TGI,HOP-62 NSCLC,> 100 µM
same,TGI,SK-MEL-2 melanoma,> 100 µM
same,TGI,UO-31 renal,> 100 µM
same,TGI,NCI-H23 lung,> 100 µM
same,TGI,T-47D breast,> 100 µM
same,TGI,RPMI-8226 leukemia,> 100 µM
same,TGI,HCC-2998 colon,> 100 µM
same,TGI,SNB-75 CNS,> 100 µM
same,TGI,SNB-19 CNS,> 100 µM
same,TGI,RXF 393 renal,> 100 µM
same,TGI,786-0 renal,> 100 µM
same,TGI,PC-3 prostate,> 100 µM
same,TGI,SK-OV-3 ovarian,> 100 µM
same,TGI,A498 renal,> 100 µM
same,TGI,SK-MEL-5 melanoma,> 100 µM
same,TGI,IGROV1 ovarian,> 100 µM
same,TGI,COLO 205 colon,> 100 µM
same,TGI,OVCAR-4 ovarian,> 100 µM
same,TGI,OVCAR-5 ovarian,> 100 µM
same,TGI,M14 melanoma,> 100 µM
same,TGI,TK-10 renal,> 100 µM
same,TGI,OVCAR-8 ovarian,> 100 µM
same,TGI,A549 NSCLC,> 100 µM
same,TGI,BT-549 breast,> 100 µM
same,TGI,OVCAR-3 ovarian,> 100 µM
same,TGI,SF-295 CNS,> 100 µM
same,TGI,MDA-MB-231 breast,> 100 µM
same,TGI,SF-268 CNS,> 100 µM
same,TGI,NCI-H226 lung,> 100 µM
same,TGI,CAKI-1 renal,> 100 µM
same,TGI,NCI/ADR-RES ovarian,> 100 µM
same,TGI,K-562 leukemia,> 100 µM
same,TGI,SW-620 colon,> 100 µM
same,TGI,MALME-3M melanoma,> 100 µM
same,TGI,KM12 colon,> 100 µM
same,TGI,SK-MEL-28 melanoma,> 100 µM
same,TGI,HS 578T breast,> 100 µM
same,TGI,CCRF-CEM leukemia,> 100 µM
same,TGI,MOLT-4 leukemia,> 100 µM
same,TGI,DU-145 prostate,> 100 µM
same,TGI,SN12C renal,> 100 µM
same,TGI,ACHN renal,> 100 µM
